Data taken from ChEMBL document CHEMBL5252515, “Discovery of 6-Amino-2-{[(1S)-1-methylbutyl]oxy}-9-[5-(1-piperidinyl)pentyl]-7,9-dihydro-8H-purin-8-one (GSK2245035), a Highly Potent and Selective Intranasal Toll-Like Receptor 7 Agonist for the Treatment of Asthma” (J Med Chem, 2016).

Legend:
PBMC [1] = assay: Immunomodulatory activity in human PBMC assessed as reduction in timothy grass induced IL-13 level after 6 days; assay type: functional, cell-based; conditions: dose 0.01-10000 nM, time 6.0 day
Toll-like receptor 7 [2] = target: T1, Toll-like receptor 7 (Homo sapiens, UniProt Q9NYK1); assay: Agonist activity at TLR7 (unknown origin) expressed in human U2OS cells assessed as induction of NF-kappaB driven TNFalpha production by luciferase reporter assay; assay type: cell-based
T1 sequence (Q9NYK1 whole entry): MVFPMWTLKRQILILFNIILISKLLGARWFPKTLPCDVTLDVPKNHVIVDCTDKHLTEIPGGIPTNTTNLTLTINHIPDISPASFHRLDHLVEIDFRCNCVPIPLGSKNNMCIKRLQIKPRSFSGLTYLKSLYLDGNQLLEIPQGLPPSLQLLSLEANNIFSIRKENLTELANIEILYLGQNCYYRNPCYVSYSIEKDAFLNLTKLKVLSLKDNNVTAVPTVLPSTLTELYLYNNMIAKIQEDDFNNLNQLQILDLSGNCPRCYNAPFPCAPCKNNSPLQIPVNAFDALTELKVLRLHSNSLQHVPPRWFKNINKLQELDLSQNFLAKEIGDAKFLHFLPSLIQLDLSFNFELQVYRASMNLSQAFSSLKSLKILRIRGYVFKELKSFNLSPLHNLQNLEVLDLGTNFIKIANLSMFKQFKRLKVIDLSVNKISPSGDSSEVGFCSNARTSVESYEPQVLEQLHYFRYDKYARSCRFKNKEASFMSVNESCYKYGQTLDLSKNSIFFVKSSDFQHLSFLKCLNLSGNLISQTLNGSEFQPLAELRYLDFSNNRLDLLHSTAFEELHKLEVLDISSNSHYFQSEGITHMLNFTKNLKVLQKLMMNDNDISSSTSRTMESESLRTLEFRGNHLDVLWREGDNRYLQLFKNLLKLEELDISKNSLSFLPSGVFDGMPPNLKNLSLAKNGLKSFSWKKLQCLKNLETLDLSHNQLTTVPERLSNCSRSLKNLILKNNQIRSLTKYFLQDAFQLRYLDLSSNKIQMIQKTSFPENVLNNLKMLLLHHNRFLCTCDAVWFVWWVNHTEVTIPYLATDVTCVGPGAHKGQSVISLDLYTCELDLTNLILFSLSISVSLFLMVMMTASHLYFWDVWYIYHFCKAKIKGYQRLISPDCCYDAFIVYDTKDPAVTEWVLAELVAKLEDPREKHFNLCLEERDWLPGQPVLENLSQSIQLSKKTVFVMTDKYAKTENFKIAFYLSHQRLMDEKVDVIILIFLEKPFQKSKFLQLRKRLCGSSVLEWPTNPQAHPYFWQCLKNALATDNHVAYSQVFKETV

Toll-like receptor 7 [3] = target: T1, Toll-like receptor 7; assay: Agonist activity at TLR7 in human whole blood assessed as induction of TNFalpha production after 20 hrs by electrochemiluminescence assay; assay type: tissue-based
[4] = Toxicity in female rat assessed as NOAEL after 8 weeks; conditions: in vivo
PBMC [5] = assay: Immunomodulatory activity in human PBMC assessed as reduction in house dust mite induced IL-13 level after 6 days; assay type: functional, cell-based; conditions: dose 0.01-10000 nM, time 6.0 day
Toll-like receptor 8 = target: T2, Toll-like receptor 8 (Homo sapiens, UniProt Q9NR97); assay: Agonist activity at TLR8 (unknown origin) expressed in human U2OS cells by luciferase reporter assay; assay type: cell-based
T2 sequence (Q9NR97 whole entry): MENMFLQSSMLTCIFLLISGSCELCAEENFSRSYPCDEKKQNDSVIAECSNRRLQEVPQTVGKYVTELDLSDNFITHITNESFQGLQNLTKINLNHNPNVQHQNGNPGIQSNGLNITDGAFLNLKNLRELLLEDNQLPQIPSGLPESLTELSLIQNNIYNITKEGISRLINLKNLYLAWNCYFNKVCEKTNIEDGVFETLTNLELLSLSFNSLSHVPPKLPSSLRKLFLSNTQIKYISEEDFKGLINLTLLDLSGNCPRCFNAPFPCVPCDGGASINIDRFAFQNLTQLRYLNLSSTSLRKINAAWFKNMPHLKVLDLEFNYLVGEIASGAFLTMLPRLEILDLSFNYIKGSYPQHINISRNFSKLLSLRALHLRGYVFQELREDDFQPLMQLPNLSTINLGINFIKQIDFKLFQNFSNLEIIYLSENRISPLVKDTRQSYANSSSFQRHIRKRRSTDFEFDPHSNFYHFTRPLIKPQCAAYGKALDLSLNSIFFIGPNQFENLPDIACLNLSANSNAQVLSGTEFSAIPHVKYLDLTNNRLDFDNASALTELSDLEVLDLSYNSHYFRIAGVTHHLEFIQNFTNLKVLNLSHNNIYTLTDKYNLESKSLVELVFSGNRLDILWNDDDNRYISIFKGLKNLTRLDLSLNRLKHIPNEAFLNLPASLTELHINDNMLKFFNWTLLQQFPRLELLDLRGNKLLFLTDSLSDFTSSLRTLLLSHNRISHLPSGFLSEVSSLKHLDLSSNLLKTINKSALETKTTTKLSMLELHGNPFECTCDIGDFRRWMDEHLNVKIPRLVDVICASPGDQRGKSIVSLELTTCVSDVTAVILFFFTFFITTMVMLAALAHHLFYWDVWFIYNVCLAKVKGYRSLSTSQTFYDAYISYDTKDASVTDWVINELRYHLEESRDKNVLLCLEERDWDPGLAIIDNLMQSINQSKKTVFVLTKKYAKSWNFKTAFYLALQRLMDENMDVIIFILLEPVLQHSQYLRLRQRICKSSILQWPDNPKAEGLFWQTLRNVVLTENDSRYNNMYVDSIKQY

With `CCC[C@H](C)Oc1nc(N)c2[nH]c(=O)n(CCCCCN3CCCCC3)c2n1` [GSK-2245035] the Activity (PBMC [1]) was “Dose-Dependent Effect”, the EC50 (Toll-like receptor 7 [2]) was 1.26 µM and the EC50 (Toll-like receptor 7 [3]) was 10 µM. For the same compound, the NOAEL at 1344 h [4] was 0.698 mg/kg, the Activity (PBMC [5]) was “Dose-Dependent Effect” and the EC50 (Toll-like receptor 8) was 20 µM.
